Experimental data from a melting point compilation (Tetko et al.; mined from patent text by program, amines drawn as free bases though some values may be those of a salt).

Row | melting point [°C] | Structure (SMILES)
1 | 100 to 104 | CC(=O)ON=C(N)c1cccc(C(=O)NCCCNC(=O)[C@@H]2CCCN2S(=O)(=O)c2ccc(Cl)c(COc3cccc4c(C)cc(C)nc34)c2Cl)c1
2 | 173 to 174 | CNS(=O)(=O)c1cc(C(C)(C)C)cc(CNC(C)=O)c1O
3 | 165 | O=C(CCl)c1ccc(OCCOc2ccc(C(=O)CCl)cc2)cc1
4 | 141 to 143 | COc1cccc(C(=O)N2CCc3cc(OCc4ccccc4)c(OC)cc3C2=O)c1
5 | 282 to 283 | COc1ccc(Cn2c(=O)[nH]c(=O)c3[nH]c(C(C)C)nc32)cc1OC1CCCC1
6 | 94 to 98 | CC(C)(C)c1cc(SC2CC(=O)N(C3CCCCC3)C2=O)cc(C(C)(C)C)c1O (stereo not given)
7 | 146 to 148 | O=C(C=CCC(Nc1cc(Cl)cc(Cl)c1I)C(=O)OCc1ccccc1)Nc1ccccc1 (stereo not given)
8 | 184 to 185 | COc1cnc(C(=O)O)cc1OC1CCCC1
9 | 112 to 113 | CCOC(=O)c1cn(-c2cccc(Oc3ccc(Cl)cc3)c2)cn1
10 | 152 to 154 | COc1ccc2c(c1)c(OC(C)C)c(C(N)=O)n2-c1ccccc1
11 | 204 to 210 | CCC(C)C(C)C(=O)Nc1ccc2c(C)cn3c(=O)c(C(=O)OCCNC(=O)c4cccnc4)cnc3c2c1 (stereo not given)
12 | 117 | COC=C(C(=O)OC)c1ccccc1C=Cc1cscn1
13 | 61 to 63 | C=CC[Si](C)(C)c1cccc(Cl)c1C(=O)NCC
14 | 113 to 115 | O=C(Nc1ccncn1)C(CC1CCCC1)c1cccc(C(F)(F)F)c1 (stereo not given)
15 | 70 to 71 | CC(C)(C)OC(=O)[C@@H]1CCCN1C(=O)CCC(=O)c1ccc(Br)cc1
16 | 178 to 183 | NC(=O)CCc1ccc(Oc2ccc3c(c2)S(=O)(=O)N=C2CCCN23)cc1
17 | 170 to 171 | O=C(O)C1CCc2c(c3ccccc3n2C(=O)c2cccc(F)c2)C1 (stereo not given)
18 | 169 to 171 | Nc1nc(N)c(CCCCc2ccc(C(=O)N[C@@H](CCC(=O)O)C(=O)O)cc2)c(O)n1
19 | 143 to 145 | COc1ccc(Cn2c3c(c(C#N)c2NC2=CC(=O)CCC2)CCCC3)cc1
20 | 151 | CC(C)N(C(C)C)S(=O)(=O)N[C@@H](Cc1ccc(NC(=O)c2c(Cl)cncc2Cl)cc1)C(=O)O

Row | melting point [°C] | Structure (SMILES)
21 | 125 to 126 | COCCN1CCn2c1nc(C(=O)O)c(OCc1ccccc1)c2=O
22 | 190 | CC(=O)NC(=C(C)C(=O)O)c1ccccc1
23 | 172 to 174 | CCOC(=O)c1c(CN(C)C2CCCCC2)nc2cc(OC)c(OC)cc2c1-c1ccc(OC)c(OC)c1
24 | 84 | CCCO[C@@H]1C[C@@H](C(=O)NC)N(S(=O)(=O)c2ccc(Cl)c(COc3cccc4c(-n5ccnc5)cc(C)nc34)c2Cl)C1
25 | 224 to 227 | COc1cc(OC)cc(-c2nn(C(C)c3oc4ccccc4c(=O)c3-c3cccc(F)c3)c3ncnc(N)c23)c1 (stereo not given)
26 | 158 | CC(=O)N(CC(=O)O)c1csc(NC(=O)OCC(Cl)(Cl)Cl)n1
27 | 143 to 146 | COc1ccc(NC(=S)Nc2cscc2C)c(N)c1
28 | 183 to 184 | COc1cc(C)nc(NC(=O)NS(=O)(=O)c2c(C)nn(C)c2OC)n1
29 | 158 to 160 | CN1CC(C(=O)c2coc(Cc3ccc(F)cc3)c2)=C(O)C1=O
30 | 81 to 84 | CC(COc1cccc(Oc2ccccc2)c1)OS(N)(=O)=O (stereo not given)
31 | 180 to 183 | COc1ccc(C(=O)NCCc2ccc(-c3ccc(OC(C)(C)C(=O)O)cc3)cc2)cc1
32 | 290 to 291 | CSc1sc(C(=O)O)c2c1-c1nn(C)cc1CC2
33 | 113 to 114 | COC(=O)c1ccccc1C1=NC(C)(C(C)C)C(=O)N1 (stereo not given)
34 | 204 to 206 | COc1ccc(CNc2cc(C(c3cc(F)ccc3F)S(=O)(=O)c3ccc(Cl)cc3)c(Cl)cn2)cc1OC (stereo not given)
35 | 137 to 139 | O=C(NOCC(O)CN1CCCCC1)Nc1cccc([N+](=O)[O-])c1 (stereo not given)
36 | 116 to 118 | COc1cccc(Cl)c1C(O)C(N)=O (stereo not given)
37 | 281 to 284 | CC(C)(C)c1ccc2c(c1)-c1c(c(C(=O)C(C#N)C(=O)NCc3ccccc3)nn1-c1ccccc1)CO2 (stereo not given)
38 | 202 to 203 | Cc1cccc2c(=O)[nH]c(N3CCN(CCCCN4CCN(C)CC4)CC3)cc12
39 | 215 | CC(C)(C)c1ccc(S(=O)(=O)NC(=O)C(Oc2ccc3c(c2)C(=O)NC3=O)c2ccc3c(c2)OCO3)cc1 (stereo not given)
40 | 163 to 164 | O=C1CCOc2ccc(OCc3ccc4ccc(Cl)cc4n3)cc21

Row | melting point [°C] | Structure (SMILES)
41 | 110 to 112 | O=C(O)CCSc1cccs1
42 | 211 to 212 | COCCOC1=CC(=O)C(Nc2ncnc3cc(OCCOC)c(OC)cc23)=CC1=O
43 | 82 to 84.5 | COC(=O)CCC(=O)c1ccc(C)cc1OCC(O)CNC(C)(C)C (stereo not given)
44 | 101 to 102 | OC1CCc2ccc(Oc3c(F)cc(C(F)(F)F)cc3Cl)cc21 (racemic)
45 | 186 to 190 | COC(=O)C1Cc2ccccc2N1c1ncnc2cc(OC)c(OC)cc12 (stereo not given)
46 | 164 to 166 | C#CC1N(C(=O)Oc2ccccc2)c2cc(OC(=O)C(C)(C)C)ccc2C23OC12CCCC3=O (stereo not given)
47 | 113 to 114 | O=C(CNc1ccc2[nH]ncc2c1)N1CCC(Cc2ccc(F)cc2)CC1
48 | 133 to 136 | COC(=O)c1ccc(NN)cc1S(=O)(=O)NC(C)(C)C
49 | 105 to 107 | CC(C)(C)NC(=O)N1CC(Oc2cccc(C(F)(F)F)c2)C1
50 | 110 to 111 | CCc1cccc(CC(=O)O)c1OCCn1cc(C(=O)NCc2ccc(C(F)(F)F)cc2)c(OC(C)C)n1
51 | 155 to 157 | CCOc1c(N2CCC(Oc3ccc(CC(=O)N4CCN(c5ccccc5C)CC4C(N)=O)c(OC)c3)CC2)c(=O)c1=O (stereo not given)
52 | 235 to 237 | CCOC(=O)c1cc2cc(C3=NNC(=O)CC3)ccc2[nH]1
53 | 183 to 184 | O=C1CCCc2c1c1cccc(F)c1n2Cc1ccccc1
54 | 219 to 220 | CC(C)n1nc(-c2c(-c3ccccc3)nn3ccc(N4CCN(S(=O)(=O)c5ccccc5)CC4)cc23)ccc1=O
55 | 190 to 191 | COC(=O)c1cc(-c2cccc(C(F)(F)F)c2)c(=O)n2c1-c1sccc1SCC2
56 | 69 to 70 | COC=C(C(=O)OC)c1ccc(OC(C)=O)cc1
57 | 148 | CCCN(C1CCC(c2c[nH]c3ccc(F)cc23)CC1)C1COc2cccc(OC)c2C1 (stereo not given)
58 | 158 to 161 | COc1ccc2c(c1)CCCC2N(CC(=O)O)C(=O)C(C)CSC(C)=O (stereo not given)
59 | 160 | CCOC(=O)C1=COc2ccc(O)cc2O1
60 | 70 | Cc1cc(-n2ccnc2)c2cccc(OCc3c(Cl)ccc(S(=O)(=O)N4CCC[C@H]4C(=O)N(C)CCCN(C)C(=O)OC(C)(C)C)c3Cl)c2n1

The next lines start with the compound.

Row | Structure (SMILES) | melting point [°C]
61 | CCCCCCCCNC(=O)n1nc(Oc2c(Cl)cc(C(F)(F)F)cc2Cl)cc1C | 43 to 45
62 | CSc1ncccc1NC(=O)CCCCCSc1nc2ccccc2[nH]1 | 121 to 123
63 | O=c1c2ccccc2[nH]c2c1cnn2-c1ccccn1 | 240 to 242
64 | CS(=O)(=O)c1ccc(-n2nc(C(F)(F)F)cc2-c2ccc(-c3cnco3)cc2)cc1 | 178 to 180
65 | CCc1nc2c(N)nc3cccnc3c2n1CC1(O)CCNCC1 | 232 to 233
66 | N#Cc1c(N2CCN(C(=O)c3cccs3)CC2)c2cc(F)ccc2n(Cc2ccccc2)c1=O | 246
67 | Cc1nn(C2CCCC2C)c(N)c1C#N (stereo not given) | 158 to 159
68 | OC(C#CCN1CCC(O)(c2ccc(Cl)cc2)CC1)c1ccc(F)cc1 (stereo not given) | 145 to 146
69 | CCCCCCC(=O)CCCC(=O)O | 58 to 59
70 | O=C1c2ccccc2C(=O)N1CC(=CF)CBr | 86 to 87
71 | COc1ccc2c(n1)C(=O)c1nccc3c1c-2nc1ccccc13 | > 260
72 | Cc1oc(/C=C/c2ccccc2)nc1COc1ccc(CCCn2ccnc2)cc1 | 94 to 95
73 | O=C1CSC(=S)N1c1cccc(C(F)(F)F)c1 | 177 to 178
74 | CNc1cnc(-c2cccnc2)s1 | 141 to 146
75 | Fc1ccccc1-c1ccc(Cl)nn1 | 95 to 96
76 | Cn1c(C(F)(F)F)cc(=O)n(-c2ccc3snc(C4OCCO4)c3c2)c1=O | 213 to 216
77 | CCc1nc(/C=C/c2cn(-c3ccccc3)nc2OCc2ccc(OCc3nc(-c4cccc(C#N)c4)oc3C)c(OC)c2)cs1 | 138 to 140
78 | O=[N+]([O-])c1cc(Cl)ccc1N1CCc2ccccc21 | 97 to 99
79 | Cc1nn(-c2cc(OC(C)C)c(Cl)cc2Cl)c(C)c1C | 56 to 58
80 | COc1cnc(CS(C)=O)nc1OC(=O)N(C)C (stereo not given) | 122

Row | Structure (SMILES) | melting point [°C]
81 | CN1Cc2c(C#CI)ncn2-c2cccc(Cl)c2C1=O | 215 to 216
82 | C=CCCCCCCCCC(O)CC(=O)O (stereo not given) | 62 to 64
83 | N#Cc1ccc(Br)cc1Br | 76 to 78
84 | Cc1nc2cc(O)c(C)cc2o1 | 198 to 200
85 | CC1(C)CC(Nc2nccc3ccccc23)CC(C)(C)N1 | 133
86 | Cc1ccc(C(=O)NCc2cccnc2)c(Nc2ccc3cn[nH]c3c2)n1 | 170 to 172
87 | Nc1cc(=O)n(Cc2ccc(C(F)(F)F)c(Cl)c2)[nH]1 | 83
88 | FC(F)Oc1ccc2nc(NC3=NCC4(CN5CCC4CC5)O3)sc2c1 (stereo not given) | 223 to 225
89 | BrC(Br)=Cc1ccccc1NCc1ccccc1 | 93 to 95
90 | COC1Nc2c(OC(C)=O)cccc2C(=O)N2CCCC12 (stereo not given) | 147 to 150
91 | CCn1c(C)nc2cc([N+](=O)[O-])c(Sc3cccc4cnccc34)cc21 | 226 to 229
92 | O=S1(=O)N=C(O)c2ccc(-c3ccccn3)cc21 | 305 to 311
93 | O=C1c2sccc2-n2cncc2[C@@H]2CCCN12 | 228 to 230
94 | C#CC(C)(O)c1ccc(Oc2ccc(Cl)cc2)cc1 (stereo not given) | 55 to 57
95 | CCOC(=O)c1c(-c2ccc(C(C)(C)C)cc2)n(C)n(-c2ccc(C#N)cc2)c1=O | 202 to 204
96 | O=C1Nc2c(F)cc(F)cc2C1c1ncnc2c1cnn2C1CCCC1 (stereo not given) | > 300
97 | COCc1nc(S)nc(O)c1OC | 187 to 189
98 | OC[C@@H](O)CCc1ccc2ccccc2c1O | 105 to 108
99 | CCc1c(Oc2c(Cl)cc(C(F)(F)F)cc2Cl)n[nH]c1C | 215 to 218
100 | Cc1nc2cc(N)c(N)cc2n1C | 212
